Counter-ions that a name gives are not always drawn.

The assay concerns the target T1, human calcium-sensing receptor (CaSR) (Homo sapiens, UniProt P41180).
T1 construct: expressed in transfected cells; host or cells: CHO cells (CHO/hCaSR)
T1 sequence (P41180 20-1078): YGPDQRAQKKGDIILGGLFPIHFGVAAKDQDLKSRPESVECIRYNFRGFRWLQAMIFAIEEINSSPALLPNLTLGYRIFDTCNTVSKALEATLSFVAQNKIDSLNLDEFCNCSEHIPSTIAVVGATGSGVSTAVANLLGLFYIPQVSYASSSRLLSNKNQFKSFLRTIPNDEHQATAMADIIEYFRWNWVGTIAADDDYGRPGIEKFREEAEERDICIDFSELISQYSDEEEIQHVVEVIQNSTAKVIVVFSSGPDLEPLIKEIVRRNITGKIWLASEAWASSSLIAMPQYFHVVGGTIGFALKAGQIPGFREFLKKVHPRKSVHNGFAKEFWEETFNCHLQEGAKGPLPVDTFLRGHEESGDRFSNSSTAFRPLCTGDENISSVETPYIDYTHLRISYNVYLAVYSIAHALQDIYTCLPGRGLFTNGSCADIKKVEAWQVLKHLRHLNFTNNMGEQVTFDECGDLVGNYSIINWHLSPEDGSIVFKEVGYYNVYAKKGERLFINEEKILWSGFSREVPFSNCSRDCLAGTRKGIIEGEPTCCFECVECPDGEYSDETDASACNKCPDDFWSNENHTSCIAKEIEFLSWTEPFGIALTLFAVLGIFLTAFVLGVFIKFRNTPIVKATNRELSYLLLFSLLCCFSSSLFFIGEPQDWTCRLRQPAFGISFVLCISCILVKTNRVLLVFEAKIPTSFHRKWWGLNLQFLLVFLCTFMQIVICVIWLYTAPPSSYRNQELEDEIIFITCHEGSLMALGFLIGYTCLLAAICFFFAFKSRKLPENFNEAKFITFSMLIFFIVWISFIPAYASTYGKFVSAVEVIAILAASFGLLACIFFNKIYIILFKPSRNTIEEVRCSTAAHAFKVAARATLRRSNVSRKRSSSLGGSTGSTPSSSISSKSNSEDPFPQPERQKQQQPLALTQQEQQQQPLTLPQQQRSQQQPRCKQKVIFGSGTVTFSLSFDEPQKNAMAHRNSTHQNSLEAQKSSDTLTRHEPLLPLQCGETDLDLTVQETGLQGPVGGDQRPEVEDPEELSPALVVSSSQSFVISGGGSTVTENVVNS
Nature of the assay: Inhibitory activity on calcium-sensing receptor (CaSR) using intracellular calcium increase as an indicator (FLIPR, CHO/hCaSR). It is filed as cell-based. As to conditions: CHO/hCaSR cells; intracellular Ca increase induced by CaCl2; test compound 1.05 to 10,000 nM. As to the method: Evaluation of inhibitory activity on calcium-sensing receptor (CaSR) using intracellular calcium increase as an indicator
The preparation which is prepared by adding CHO/hCaSR to F12 medium (manufactured by Invitrogen) containing 10% fetal bovine serum to have 2×10^5 cells/mL was applied to a 384-well in an amount of 50 μL/well, and then incubated overnight in a CO2 incubator. The culture supernatant was completely removed, the assay buffer (20 mM HEPES, HBSS (Ca and Mg free) containing 2.5 mM probenecid, pH 7.4) containing Calcium 3 (manufactured by Molecular Devices), i.e., a fluorescent intracellular calcium indicator, was added thereto in an amount of 25 μL/well, and the mixture was maintained for 1 hour in a CO2 incubator. Meanwhile, Calcium 3 was prepared according to the protocol enclosed in FLIPR Calcium 3 Assay Kit (manufactured by Molecular Devices). After maintaining it for 1 hour, a solution in which the test compound is prepared to have 2.1 to 20,000 nM (final concentration of 1.05 to 10,000 nM) by an assay buffer was added thereto in an amount of 25 μL/well, and maintained for 15 minutes in a CO2 incubator. Then, the CaCl2 solution prepared to have […] by using the assay buffer was added in an amount of 25 μL/well, and the resulting intracellular Ca increase (i.e., fluorescence intensity) was measured over time using a fluorescence imaging plate reader (FLIPR, manufactured by Molecular Devices). From the data obtained, the difference between the fluorescence intensity before the addition of CaCl2 solution and the maximum fluorescence intensity after the addition of CaCl2 solution was calculated, and the 50% inhibition concentration (IC50) of the test compound was obtained.
(Calcium assays in cells follow changes in intracellular calcium, usually with a dye or a luminescent sensor.)
Consider `CC[C@@H](OC[C@H](O)CNC(C)(C)CC1Cc2ccccc2C1)c1cccc(F)c1CCC(=O)O` [Example 39], for which the IC50 was not above 2330 nM. As to `CC[C@@H](OC[C@H](O)CNC(C)(C)CC1Cc2ccccc2C1)c1ccc(C)cc1CCC(=O)O` [Example 40], the IC50 was not above 2350 nM. `CC[C@@H](OC[C@H](O)CNC(C)(C)CC1Cc2ccccc2C1)c1cccc(OC)c1CCC(=O)O` [Example 41]: the IC50 is not above 2270 nM. As to `Cc1cccc([C@@H](C)OC[C@H](O)CNC(C)(C)CC2Cc3ccccc3C2)c1CCC(=O)O` [Example 42], the IC50 is not above 2420 nM. As to `Cc1ccc([C@@H](C)OC[C@H](O)CNC(C)(C)CC2Cc3ccccc3C2)c(CCCCC(=O)O)c1` [Example 43], the IC50 was not above 2280 nM. In the case of `C[C@@H](OC[C@H](O)CNC(C)(C)CC1Cc2ccccc2C1)c1ccc(F)cc1CCCCC(=O)O` [Example 44] it was not above 2270 nM; in that of `C[C@@H](OC[C@H](O)CNC(C)(C)CC1Cc2ccccc2C1)c1cc(F)ccc1CCCCC(=O)O` [Example 45], not above 2270 nM; in that of `Cc1ccc(CCCCC(=O)O)c([C@@H](C)OC[C@H](O)CNC(C)(C)CC2Cc3ccccc3C2)c1` [Example 46], not above 2280 nM. Turning to `Cc1cccc([C@@H](C)OC[C@H](O)CNC(C)(C)CC2Cc3ccccc3C2)c1CCCCC(=O)O` [Example 47], the IC50 was not above 2280 nM.

On to `C[C@@H](OC[C@H](O)CNC(C)(C)CC1Cc2ccccc2C1)c1cccc(F)c1CCCCC(=O)O` [Example 48], for which the IC50 is not above 2270 nM. In the case of `C[C@@H](OC[C@H](O)CNC(C)(C)CC1Cc2ccccc2C1)c1cc(C(F)(F)F)ccc1CCC(=O)O` [Example 49], the IC50 is not above 2170 nM. The figure for `C[C@@H](OC[C@H](O)CNC(C)(C)CC1Cc2ccccc2C1)c1cc(C(F)(F)F)ccc1CCCCC(=O)O` [Example 50] is not above 2050 nM; for `CCC[C@@H](OC[C@H](O)CNC(C)(C)CC1Cc2ccccc2C1)c1cc(F)ccc1CCC(=O)O` [Example 51] it is not above 2270 nM. `CCC[C@@H](OC[C@H](O)CNC(C)(C)CC1Cc2ccccc2C1)c1cccc(C)c1CCC(=O)O` [Example 52]: the IC50 is not above 2280 nM. Take `CCC[C@@H](OC[C@H](O)CNC(C)(C)CC1Cc2ccccc2C1)c1cccc(F)c1CCC(=O)O` [Example 53]: the IC50 is not above 2270 nM. In the case of `CCC[C@@H](OC[C@H](O)CNC(C)(C)CC1Cc2ccccc2C1)c1ccc(C)cc1CCC(=O)O` [Example 54], the IC50 is not above 2280 nM. In the case of `CCC[C@@H](OC[C@H](O)CNC(C)(C)CC1Cc2ccccc2C1)c1cccc(OC)c1CCC(=O)O` [Example 55], the IC50 is not above 2210 nM. In the case of `CCOc1ccc(CCC(=O)O)c([C@@H](C)OC[C@H](O)CNC(C)(C)CC2Cc3ccccc3C2)c1` [Example 56] it was not above 2270 nM; in that of `CCOc1ccc(CCCCC(=O)O)c([C@@H](C)OC[C@H](O)CNC(C)(C)CC2Cc3ccccc3C2)c1` [Example 58], not above 2150 nM; in that of `CC[C@@H](OC[C@H](O)CNC(C)(C)CC1Cc2ccccc2C1)c1cc(F)c(C)cc1CCC(=O)O` [Example 60], not above 2270 nM.

Consider `CC[C@@H](OC[C@H](O)CNC(C)(C)CC1Cc2ccccc2C1)c1cc(F)c(C)cc1CCCCC(=O)O` [Example 61], for which the IC50 was not above 2140 nM. In the case of `CCOc1cccc([C@@H](C)OC[C@H](O)CNC(C)(C)CC2Cc3ccccc3C2)c1CCC(=O)O` [Example 62] it was not above 2270 nM. `CCOc1cccc([C@@H](C)OC[C@H](O)CNC(C)(C)CC2Cc3ccccc3C2)c1CCCCC(=O)O` [Example 63]: the IC50 was not above 2150 nM. The figure for `CC(C)Oc1cccc([C@@H](C)OC[C@H](O)CNC(C)(C)CC2Cc3ccccc3C2)c1CCC(=O)O` [Example 64] is not above 2210 nM.

As to `CC(C)Oc1cccc([C@@H](C)OC[C@H](O)CNC(C)(C)CC2Cc3ccccc3C2)c1CCCCC(=O)O` [Example 65], the IC50 was not above 2090 nM. The figure for `C[C@@H](OC[C@H](O)CNC(C)(C)CC1Cc2ccccc2C1)c1cccc(OC(F)F)c1CCC(=O)O` [Example 66] is not above 2180 nM; for `C[C@@H](OC[C@H](O)CNC(C)(C)CC1Cc2ccccc2C1)c1ccccc1CCCCCC(=O)O` [Example 67] it is not above 2280 nM. As for `C[C@@H](OC[C@H](O)CNC(C)(C)CC1Cc2ccccc2C1)c1ccccc1CCCCCCC(=O)O` [Example 68], the IC50 is not above 2220 nM.

On to `C[C@@H](OC[C@H](O)CNC(C)(C)CC1Cc2ccccc2C1)c1ccc(Cl)cc1CCC(=O)O` [Example 69], for which the IC50 is not above 2320 nM. Turning to `C[C@@H](OC[C@H](O)CNC(C)(C)CC1Cc2ccccc2C1)c1cc(Cl)ccc1CCC(=O)O` [Example 70], the IC50 was not above 2320 nM. Consider `C[C@@H](OC[C@H](O)CNC(C)(C)CC1Cc2ccccc2C1)c1cccc(Cl)c1CCC(=O)O` [Example 71], for which the IC50 was not above 2320 nM. In the case of `C[C@@H](OC[C@H](O)CNC(C)(C)CC1Cc2ccccc2C1)c1ccc(Cl)cc1CCCCC(=O)O` [Example 72] it was not above 2190 nM. In the case of `CC[C@@H](OC[C@H](O)CNC(C)(C)CC1Cc2ccccc2C1)c1cc(Cl)ccc1CCC(=O)O` [Example 73] it was not above 2250 nM.

On to `CC[C@@H](OC[C@H](O)CNC(C)(C)CC1Cc2ccccc2C1)c1ccc(Cl)cc1CCC(=O)O` [Example 74], for which the IC50 was not above 2250 nM. Turning to `CC[C@@H](OC[C@H](O)CNC(C)(C)CC1Cc2ccccc2C1)c1cccc(Cl)c1CCC(=O)O` [Example 75], the IC50 is not above 2250 nM. In the case of `CCC[C@@H](OC[C@H](O)CNC(C)(C)CC1Cc2ccccc2C1)c1cc(Cl)ccc1CCC(=O)O` [Example 76], the IC50 is not above 2190 nM. For the compound `CCC[C@@H](OC[C@H](O)CNC(C)(C)CC1Cc2ccccc2C1)c1ccc(Cl)cc1CCC(=O)O` [Example 77], the IC50 was not above 2190 nM.

Regarding `CCC[C@@H](OC[C@H](O)CNC(C)(C)CC1Cc2ccccc2C1)c1cccc(Cl)c1CCC(=O)O` [Example 78], the IC50 is not above 2190 nM. The figure for `CC[C@@H](OC[C@H](O)CNC(C)(C)CC1Cc2ccccc2C1)c1cc(F)c(F)cc1CCC(=O)O` [Example 79] is not above 2250 nM; for `CC[C@@H](OC[C@H](O)CNC(C)(C)CC1Cc2ccccc2C1)c1cc(F)cc(F)c1CCC(=O)O` [Example 80] it is not above 2250 nM; for `C[C@@H](OC[C@H](O)CNC(C)(C)CC1Cc2ccccc2C1)c1ccccc1CCc1nn[nH]n1` [Example 81, (2R)-1-{[2-(2,3-Dihydro-1H-inden-2-yl)-1,1-dimethylethyl]amino}-3-[(1R)-1-{2-[2-(2H-tetrazol-5-yl)ethyl]phenyl}ethoxy]propan-2-ol formate] it is not above 2160 nM.

With `C[C@@H](OC[C@H](O)CNC(C)(C)CC1Cc2ccccc2C1)c1ccccc1CC(C)(C)C(=O)O` [Example 82, 3-{2-[(1R)-1-{[(2R)-3-{[1-(2,3-Dihydro-1H-inden-2-yl)-2-methylpropan-2-yl]amino}-2-hydroxypropyl]oxy}ethyl]phenyl}-2,2-dimethylpropanoic acid], the IC50 was not above 2350 nM. Consider `C[C@@H](OC[C@H](O)CNC(C)(C)CC1Cc2ccccc2C1)c1ccccc1CCOCC(=O)O` [Example 83, (2-{2-[(1R)-1-{[(2R)-3-{[1-(2,3-Dihydro-1H-inden-2-yl)-2-methylpropan-2-yl]amino}-2-hydroxypropyl]oxy}ethyl]phenyl}ethoxy)acetic acid], for which the IC50 is not above 2340 nM.

In general, IC50 refers to the concentration that gives 50% inhibition.
